Data: patent US12583825B2, “Benzo[h]quinazolin-4-amine and thieno[3,2-h]quinazolin-4-amine derivatives for the treatment of cancer” (Redona Therapeutics, Inc., priority 2020, dated 2026)

Columns and labels:
MDA-MB-231 cells = assay: MDA-MB-231 proliferation assay; format: cell-based; conditions: Homo sapiens, 72 hours, YO-PRO-1 readout
Method: MDA-MB-231 Proliferation Assay
MDA-MB-231 cells were cultivated in DMEM High Glucose (4.5 g/L) with L-Glutamine (BioConcept, cat. no. 1-26F03-I) supplemented with 1% Na-pyruvate (Sigma, cat. no. S8636), 1% Penicillin-Streptomycin (BioConcept, cat. no. 4-01F00H), and 10% FBS (Sigma, cat. no. F9665) using standard techniques. Cells were seeded in black, clear-bottom 384 well plates for tissue culture (Greiner Bio-One, cat. no. 781091) at a density of 750 cells per well in 20 μL medium and the plates were incubated overnight at 37° C. with 5% CO2 prior to treatment. Experimental compounds were serially diluted in DMSO to 200× the desired final concentrations. The solutions were then diluted 1:40 with culture medium and 5 μL aliquots were mixed into the wells containing the cells. The final concentration of DMSO was 0.5%. The plates were incubated for 72 hours and cell numbers were then measured using YO-PRO™-1 Iodide (ThermoFisher Scientific, cat. no. Y3603) essentially as recommended by the manufacturer. […] The plates were incubated at room temperature in the dark for 30 minutes. Fluorescence intensity signals were then measured on a Synergy 4 reader (BioTek) using 485/20 nm and 530/25 nm filters for the excitation and emission, respectively. Relative proliferation values were calculated by normalizing the raw data using DMSO-treated cells (100% proliferation) and the signals obtained from cells that were evaluated at the time of compound addition (0% proliferation). The concentration-response data were fitted to a sigmoidal 4-parameter logistic model with the maximum constrained to 100%.

recombinant human CLK3 = molecular target: T1, recombinant human CLK3 (Homo sapiens, UniProt P49761); assay: CLK3 kinase assay (LANCE Ultra); format: biochemical; conditions: 0.5 nM CLK3, 300 μM ATP, 3 hours at 30° C.
T1 construct: purchased Thermo Fisher Scientific PV3826
T1 sequence (P49761 whole entry): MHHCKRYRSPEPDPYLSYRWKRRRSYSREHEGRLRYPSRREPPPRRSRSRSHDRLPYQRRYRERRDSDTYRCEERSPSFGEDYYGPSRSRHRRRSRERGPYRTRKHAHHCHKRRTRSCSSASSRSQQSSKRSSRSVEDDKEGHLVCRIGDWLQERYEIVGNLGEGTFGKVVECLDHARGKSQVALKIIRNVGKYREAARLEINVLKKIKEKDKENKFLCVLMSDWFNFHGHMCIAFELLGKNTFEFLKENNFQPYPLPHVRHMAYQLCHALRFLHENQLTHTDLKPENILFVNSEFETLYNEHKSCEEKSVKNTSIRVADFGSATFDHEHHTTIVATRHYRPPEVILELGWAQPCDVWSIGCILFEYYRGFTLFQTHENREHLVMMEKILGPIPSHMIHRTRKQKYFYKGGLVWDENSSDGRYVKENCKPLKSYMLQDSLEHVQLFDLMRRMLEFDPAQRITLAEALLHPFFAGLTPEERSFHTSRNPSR
Method: CLK3 kinase activity was measured using the LANCE® Ultra technology (PerkinElmer) essentially as recommended by the supplier. Briefly, 2.5 μL of test sample at 4× the desired final concentration in 4% DMSO were dispensed into white, low volume, round bottom, 384 well plates (Corning, cat. no. 4512). 5 μL of a mixture containing recombinant human CLK3 (Thermo Fisher Scientific, cat. no. PV3826) and the labeled peptide substrate ULight™-CREBtide (PerkinElmer, cat. no. TRF0107) prepared in 1.33× kinase buffer (Thermo Fisher Scientific, cat. no. PV3189) were then added. Finally, the reactions were started by adding 2.5 μL of a 4× solution of ATP in kinase buffer. The plates were sealed with adhesive foils and incubated for 3 hours at 30° C. in the dark. The final concentrations of CLK3, ULight™—CREBtide, and ATP were 0.5 nM, 50 nM, and 300 μM, respectively. 5 μL of 40 mM EDTA were then added to terminate the reactions. The Eu-anti-phospho-CREB antibody (PerkinElmer, cat. no. TRF0200) diluted in LANCE® detection buffer (PerkinElmer, cat. no. CR97) was then added to a final concentration of 2 nM and the reactions were incubated for 1 hour at room temperature in the dark. The signals were measured using a Synergy 4 reader (BioTek) with a 320/80 nm filter for the excitation and 620/10 nm and 665/8 nm filters for the donor and acceptor emission, respectively. […] IC50 values were calculated by fitting the concentration-response data to a sigmoidal 4-parameter logistic model.

Row | Structure (SMILES) | GI50 (MDA-MB-231 cells) | IC50 (recombinant human CLK3)
1 | CC1(C)/C(=N/O)c2cc(O[C@H]3CC[C@H](N)CC3)ccc2-c2ncnc(N)c21 [Example 2, (6Z)-4-amino-8-(trans-4-aminocyclohexoxy)-5,5-dimethyl-benzo[h]quinazolin-6-one oxime] | 742 nM | 16.6 nM
2 | CC1(C)/C(=N/OCc2ccccc2)c2cc(O[C@H]3CC[C@H](N)CC3)ccc2-c2ncnc(N)c21 [Example 3, (6Z)-8-(trans-4-aminocyclohexoxy)-6-benzyloxyimino-5,5-dimethyl-benzo[h]quinazolin-4-amine] | 1960 nM | 200 nM
3 | COc1ccc2c(c1)/C(=N\OCC(=O)O)C(C)(C)c1c(N)ncnc1-2 [Example 5, 2-[(Z)-(4-amino-8-methoxy-5,5-dimethyl-benzo[h]quinazolin-6-ylidene)amino]oxyacetic acid] |  | 227 nM
4 | COc1ccc2c(c1)/C(=N\OCC(N)=O)C(C)(C)c1c(N)ncnc1-2 [Example 7, 2-[(Z)-(4-amino-8-methoxy-5,5-dimethyl-benzo[h]quinazolin-6-ylidene)amino]oxyacetamide] |  | 115 nM
5 | COc1ccc2c(c1)/C(=N\OCC(=O)NCCN)C(C)(C)c1c(N)ncnc1-2 [Example 8, N-(2-aminoethyl)-2-[(Z)-(4-amino-8-methoxy-5,5-dimethyl-benzo[h]quinazolin-6-ylidene)amino]oxy-acetamide] | > 2000 nM | 73.2 nM
6 | COc1ccc2c(c1)/C(=N\O[C@H]1CC[C@@H](N)CC1)C(C)(C)c1c(N)ncnc1-2 [Example 9, (6Z)-6-(cis-4-aminocyclohexoxy)imino-8-methoxy-5,5-dimethyl-benzo[h]quinazolin-4-amine] | 1050 nM | 90.2 nM
7 | COc1ccc2c(c1)/C(=N\O[C@H]1CC[C@H](N)CC1)C(C)(C)c1c(N)ncnc1-2 [Example 10, (6Z)-6-(trans-4-aminocyclohexoxy)imino-8-methoxy-5,5-dimethyl-benzo[h]quinazolin-4-amine] | > 2000 nM | 75.8 nM
8 | COc1ccc2c(c1)/C(=N\OC[C@H]1CC[C@H](N)CC1)C(C)(C)c1c(N)ncnc1-2 [Example 11, (6Z)-6-[(trans-4-aminocyclohexyl)methoxyimino]-8-methoxy-5,5-dimethyl-benzo[h]quinazolin-4-amine] |  | 437 nM
9 | COc1ccc2c(c1)/C(=N\OC[C@H]1CNC(=O)O1)C(C)(C)c1c(N)ncnc1-2 [Example 12, (5R)-5-[[(Z)-(4-amino-8-methoxy-5,5-dimethyl-benzo[h]quinazolin-6-ylidene)amino]oxymethyl]oxazolidin-2-one] | > 2000 nM | 129 nM
10 | COC(=O)CCO/N=C1\c2cc(O[C@H]3CC[C@H](N)CC3)ccc2-c2ncnc(N)c2C1(C)C [Example 14, methyl 3-[(Z)-[4-amino-8-(trans-4-aminocyclohexoxy)-5,5-dimethyl-benzo[h]quinazolin-6-ylidene]amino]oxypropanoate] | 597 nM | 23.9 nM
11 | CC1(C)/C(=N/OCCCO)c2cc(O[C@H]3CC[C@H](N)CC3)ccc2-c2ncnc(N)c21 [Example 15, 3-[(Z)-[4-amino-8-(trans-4-aminocyclohexoxy)-5,5-dimethyl-benzo[h]quinazolin-6-ylidene]amino]oxypropan-1-ol] | 714 nM | 29.8 nM
12 | CCN(CC)CCCO/N=C1\c2cc(O[C@H]3CC[C@H](N)CC3)ccc2-c2ncnc(N)c2C1(C)C [Example 17, (6Z)-8-(trans-4-aminocyclohexoxy)-6-[3-(diethylamino)propoxyimino]-5,5-dimethyl-benzo[h]quinazolin-4-amine] |  | 410 nM
13 | CCO/N=C1\c2cc(O[C@H]3CC[C@H](N)CC3)ccc2-c2ncnc(N)c2C1(C)C [Example 24, (6Z)-8-(trans-4-aminocyclohexoxy)-6-ethoxyimino-5,5-dimethyl-benzo[h]quinazolin-4-amine] | 743 nM | 
14 | CO/N=C1\c2cc(O[C@H]3CC[C@H](N)CC3)cc(Cl)c2-c2ncnc(N)c2C1(C)C [Example 39, (6Z)-8-(trans-4-aminocyclohexoxy)-10-chloro-6-methoxyimino-5,5-dimethyl-benzo[h]quinazolin-4-amine] | > 2000 nM | 
15 | CO/N=C1\c2cc(OC)c(N)cc2-c2ncnc(N)c2C1(C)C [Example 42, (6Z)-8-methoxy-6-methoxyimino-5,5-dimethyl-benzo[h]quinazoline-4,9-diamine] | > 2000 nM | 
16 | CO/N=C1\c2cc(O[C@H]3CC[C@@H](N)CC3)ccc2-c2ncnc(N)c2C1(C)C [Example 54, (6Z)-8-(cis-4-aminocyclohexoxy)-6-methoxyimino-5,5-dimethyl-benzo[h]quinazolin-4-amine] |  | 1.9 nM
17 | COc1ccc2c(c1)/C(=N\OC[C@@H]1CCNC1)C(C)(C)c1c(N)ncnc1-2 [Example 62, (6Z)-8-methoxy-5,5-dimethyl-6-[[(3R)-pyrrolidin-3-yl]methoxyimino]benzo[h]quinazolin-4-amine] |  | 372 nM
18 | COc1ccc2c(c1)/C(=N/OC[C@@H]1CCNC1)C(C)(C)c1c(N)ncnc1-2 [Example 63, (6E)-8-methoxy-5,5-dimethyl-6-[[(3R)-pyrrolidin-3-yl]methoxyimino]benzo[h]quinazolin-4-amine] |  | 313 nM
19 | C=CCO/N=C1\c2cc(O[C@H]3CC[C@H](N)CC3)ccc2-c2ncnc(N)c2C1(C)C [Example 64, (6Z)-6-allyloxyimino-8-(trans-4-aminocyclohexoxy)-5,5-dimethyl-benzo[h]quinazolin-4-amine] | > 2000 nM | 
20 | CC(C)O/N=C1\c2cc(O[C@H]3CC[C@H](N)CC3)ccc2-c2ncnc(N)c2C1(C)C [Example 67, (6Z)-8-(trans-4-aminocyclohexoxy)-6-isopropoxyimino-5,5-dimethyl-benzo[h]quinazolin-4-amine] | > 2000 nM | 
21 | CO/N=C1\c2cc(N(C)C3CCNCC3)ccc2-c2ncnc(N)c2C1(C)C [Example 69, (6Z)-6-methoxyimino-N8,5,5-trimethyl-N8-(4-piperidyl)benzo[h]quinazoline-4,8-diamine] | > 2000 nM | 
22 | COc1ccc2c(c1)/C(=N\OC[C@H]1CCN(C)C1)C(C)(C)c1c(N)ncnc1-2 [Example 71, (6Z)-8-methoxy-5,5-dimethyl-6-[[(3S)-1-methylpyrrolidin-3-yl]methoxyimino]benzo[h]quinazolin-4-amine] |  | 173 nM
23 | CO/N=C1\c2cc(Br)ccc2-c2ncnc(N)c2C1(C)C [Example 89, (6Z)-8-bromo-6-methoxyimino-5,5-dimethyl-benzo[h]quinazolin-4-amine] |  | 98.6 nM
24 | CC1(C)/C(=N/OCCOC(F)(F)F)c2cc(O[C@H]3CC[C@@H](N)CC3)ccc2-c2ncnc(N)c21 [Example 105, (6Z)-8-(cis-4-aminocyclohexoxy)-5,5-dimethyl-6-[2-(trifluoromethoxy)ethoxyimino]benzo[h]quinazoline-4-amine] | 82 nM | 
25 | CC1(C)/C(=N/OCCOc2ccccc2)c2cc(O[C@H]3CC[C@@H](N)CC3)ccc2-c2ncnc(N)c21 [Example 107, (6Z)-8-(cis-4-aminocyclohexoxy)-5,5-dimethyl-6-(2-phenoxyethoxyimino)benzo[h]quinazoline-4-amine] | 319 nM | 
26 | CC1(C)/C(=N/OCCCc2cccnc2)c2cc(O[C@H]3CC[C@@H](N)CC3)ccc2-c2ncnc(N)c21 [Example 108, (6Z)-8-(cis-4-aminocyclohexoxy)-5,5-dimethyl-6-[3-(3-pyridyl)propoxyimino]benzo[h]quinazoline-4-amine] | 942 nM | 
